Experimental findings from publication PMC9133015 (Nature Communications, 2022) are described below.

Where “and” joins values, the source holds several entries; their conditions need not be identical. Equal values may be shown once.

Test in all cases: Kinase inhibitor specificity profiling (Reaction Biology Corporation)
What all share (assay type): biochemical
What all share (set-up): % Enzyme Activity (relative to DMSO controls): concentration or dose not given beside the values

Assay [1] addresses T1, panel of 370 protein kinases (Homo sapiens, UniProt P43403).
T1 construct: purchased Reaction Biology Corporation (assay service)
The settings on record: 2 h, kinase ZAP70; read-out: % Enzyme Activity (relative to DMSO controls).

Assay [2] deals with T2, panel of 370 protein kinases (Homo sapiens, UniProt P53671).
T2 construct: purchased Reaction Biology Corporation (assay service)
T2 sequence (P53671 whole entry): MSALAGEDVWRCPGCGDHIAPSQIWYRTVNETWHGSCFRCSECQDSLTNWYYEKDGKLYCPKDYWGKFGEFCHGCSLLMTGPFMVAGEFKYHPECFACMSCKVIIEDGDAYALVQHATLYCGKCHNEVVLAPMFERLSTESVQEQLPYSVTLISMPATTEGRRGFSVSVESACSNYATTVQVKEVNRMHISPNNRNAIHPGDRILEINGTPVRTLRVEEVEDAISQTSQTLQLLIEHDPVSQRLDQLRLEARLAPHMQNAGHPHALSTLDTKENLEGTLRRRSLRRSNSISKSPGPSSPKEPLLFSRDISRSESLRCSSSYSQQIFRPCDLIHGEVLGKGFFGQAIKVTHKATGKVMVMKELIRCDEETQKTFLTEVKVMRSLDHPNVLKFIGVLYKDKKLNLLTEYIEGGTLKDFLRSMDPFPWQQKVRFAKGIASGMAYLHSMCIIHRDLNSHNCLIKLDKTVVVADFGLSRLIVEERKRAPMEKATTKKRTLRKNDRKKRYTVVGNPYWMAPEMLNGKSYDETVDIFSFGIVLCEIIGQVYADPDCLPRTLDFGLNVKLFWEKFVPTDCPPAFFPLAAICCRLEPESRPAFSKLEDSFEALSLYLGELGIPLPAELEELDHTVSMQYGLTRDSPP
Conditions: 2 h, kinase LIMK2; read-out: % Enzyme Activity (relative to DMSO controls).

Assay [3] deals with T3, panel of 370 protein kinases (Homo sapiens, UniProt Q14012).
T3 construct: purchased Reaction Biology Corporation (assay service)
Conditions: 2 h, kinase CAMK1a; read-out: % Enzyme Activity (relative to DMSO controls).

For assay [4], the target named is T4, panel of 370 protein kinases (Homo sapiens, UniProt Q9H4B4).
T4 construct: purchased Reaction Biology Corporation (assay service)
The settings on record: 2 h, kinase PLK3; read-out: % Enzyme Activity (relative to DMSO controls).

The target in assay [5] is T5, panel of 370 protein kinases (Homo sapiens, UniProt P42685).
T5 construct: purchased Reaction Biology Corporation (assay service)
Conditions: 2 h, kinase FRK/PTK5; read-out: % Enzyme Activity (relative to DMSO controls).

Assay [6] deals with T6, panel of 370 protein kinases (Homo sapiens, UniProt O75716).
T6 construct: purchased Reaction Biology Corporation (assay service)
T6 sequence (O75716 whole entry): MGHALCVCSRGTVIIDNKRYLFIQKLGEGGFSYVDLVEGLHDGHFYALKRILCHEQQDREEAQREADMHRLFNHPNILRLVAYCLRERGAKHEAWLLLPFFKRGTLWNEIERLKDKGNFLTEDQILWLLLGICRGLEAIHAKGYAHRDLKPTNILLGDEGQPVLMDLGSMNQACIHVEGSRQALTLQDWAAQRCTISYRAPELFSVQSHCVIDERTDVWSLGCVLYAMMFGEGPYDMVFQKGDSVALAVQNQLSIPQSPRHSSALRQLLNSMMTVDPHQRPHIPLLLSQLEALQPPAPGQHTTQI
Conditions: 2 h, kinase STK16; read-out: % Enzyme Activity (relative to DMSO controls).

Assay [7] addresses T7, panel of 370 protein kinases (Homo sapiens, UniProt Q9HC98).
T7 construct: purchased Reaction Biology Corporation (assay service)
The settings on record: 2 h, kinase NEK6; read-out: % Enzyme Activity (relative to DMSO controls).

Assay [8] has as its target T8, panel of 370 protein kinases (Homo sapiens, UniProt P49841).
T8 construct: purchased Reaction Biology Corporation (assay service)
The settings on record: 2 h, kinase GSK3b; read-out: % Enzyme Activity (relative to DMSO controls).

For assay [9], the target named is T9, panel of 370 protein kinases (Homo sapiens, UniProt P31751).
T9 construct: purchased Reaction Biology Corporation (assay service)
T9 sequence (P31751 whole entry): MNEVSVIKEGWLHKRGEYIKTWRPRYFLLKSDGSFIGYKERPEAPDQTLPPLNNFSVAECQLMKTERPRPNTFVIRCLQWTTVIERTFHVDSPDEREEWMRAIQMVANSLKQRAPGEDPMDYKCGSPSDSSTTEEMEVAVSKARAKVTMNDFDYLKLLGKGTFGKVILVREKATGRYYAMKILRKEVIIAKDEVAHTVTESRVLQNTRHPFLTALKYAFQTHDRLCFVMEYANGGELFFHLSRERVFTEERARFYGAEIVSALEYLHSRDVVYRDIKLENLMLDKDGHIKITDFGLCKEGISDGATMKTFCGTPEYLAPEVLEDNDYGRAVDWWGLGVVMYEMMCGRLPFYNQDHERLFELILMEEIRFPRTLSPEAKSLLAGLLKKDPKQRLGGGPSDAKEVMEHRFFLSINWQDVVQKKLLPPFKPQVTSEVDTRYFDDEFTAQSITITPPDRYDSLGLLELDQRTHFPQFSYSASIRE
Conditions: 2 h, kinase AKT2; read-out: % Enzyme Activity (relative to DMSO controls).

The target of assay [10] is T10, panel of 370 protein kinases (Homo sapiens, UniProt P53667).
T10 construct: purchased Reaction Biology Corporation (assay service)
T10 sequence (P53667 whole entry): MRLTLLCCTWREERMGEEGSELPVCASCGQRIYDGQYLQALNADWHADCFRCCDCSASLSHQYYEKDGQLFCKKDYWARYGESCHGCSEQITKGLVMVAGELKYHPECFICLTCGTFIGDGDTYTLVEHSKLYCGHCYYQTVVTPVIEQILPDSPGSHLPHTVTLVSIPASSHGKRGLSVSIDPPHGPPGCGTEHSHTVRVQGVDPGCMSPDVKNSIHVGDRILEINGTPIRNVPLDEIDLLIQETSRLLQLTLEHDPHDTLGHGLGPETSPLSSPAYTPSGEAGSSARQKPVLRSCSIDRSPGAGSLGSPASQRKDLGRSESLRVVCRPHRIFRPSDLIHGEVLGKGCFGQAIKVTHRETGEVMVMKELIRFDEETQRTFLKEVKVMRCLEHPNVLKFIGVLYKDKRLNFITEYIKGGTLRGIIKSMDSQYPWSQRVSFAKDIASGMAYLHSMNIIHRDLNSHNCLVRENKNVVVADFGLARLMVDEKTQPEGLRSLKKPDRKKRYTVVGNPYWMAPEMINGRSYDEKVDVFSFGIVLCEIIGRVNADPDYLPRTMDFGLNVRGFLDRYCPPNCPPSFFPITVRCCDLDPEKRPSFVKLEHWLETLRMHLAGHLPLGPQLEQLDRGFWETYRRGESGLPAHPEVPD
Conditions: 2 h, kinase LIMK1; read-out: % Enzyme Activity (relative to DMSO controls).

In assay [11] the target is T11, panel of 370 protein kinases (Homo sapiens, UniProt Q13627).
T11 construct: purchased Reaction Biology Corporation (assay service)
The settings on record: 2 h, kinase DYRK1/DYRK1A; read-out: % Enzyme Activity (relative to DMSO controls).

The target in assay [12] is T12, panel of 370 protein kinases (Homo sapiens, UniProt Q9H093).
T12 construct: purchased Reaction Biology Corporation (assay service)
T12 sequence (Q9H093 whole entry): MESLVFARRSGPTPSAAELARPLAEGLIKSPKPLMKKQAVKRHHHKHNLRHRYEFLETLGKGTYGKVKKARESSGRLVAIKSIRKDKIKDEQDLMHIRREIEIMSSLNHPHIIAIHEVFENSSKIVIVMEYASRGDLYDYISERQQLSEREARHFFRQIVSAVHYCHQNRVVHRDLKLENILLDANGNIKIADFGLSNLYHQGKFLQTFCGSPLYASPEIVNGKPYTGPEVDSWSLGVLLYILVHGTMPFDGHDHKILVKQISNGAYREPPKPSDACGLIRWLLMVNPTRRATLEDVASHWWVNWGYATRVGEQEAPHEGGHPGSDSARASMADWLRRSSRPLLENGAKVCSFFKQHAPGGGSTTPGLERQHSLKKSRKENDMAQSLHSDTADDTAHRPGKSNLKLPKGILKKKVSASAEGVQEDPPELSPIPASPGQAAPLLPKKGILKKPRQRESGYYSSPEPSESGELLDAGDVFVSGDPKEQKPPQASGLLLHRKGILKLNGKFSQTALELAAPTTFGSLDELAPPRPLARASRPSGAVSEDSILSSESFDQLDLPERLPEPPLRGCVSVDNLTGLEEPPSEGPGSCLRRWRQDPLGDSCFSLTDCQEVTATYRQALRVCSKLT
Conditions: kinase SNARK/NUAK2.

For assay [13], the target named is T13, panel of 370 protein kinases (Homo sapiens, UniProt Q6PHR2).
T13 construct: purchased Reaction Biology Corporation (assay service)
T13 sequence (Q6PHR2 whole entry): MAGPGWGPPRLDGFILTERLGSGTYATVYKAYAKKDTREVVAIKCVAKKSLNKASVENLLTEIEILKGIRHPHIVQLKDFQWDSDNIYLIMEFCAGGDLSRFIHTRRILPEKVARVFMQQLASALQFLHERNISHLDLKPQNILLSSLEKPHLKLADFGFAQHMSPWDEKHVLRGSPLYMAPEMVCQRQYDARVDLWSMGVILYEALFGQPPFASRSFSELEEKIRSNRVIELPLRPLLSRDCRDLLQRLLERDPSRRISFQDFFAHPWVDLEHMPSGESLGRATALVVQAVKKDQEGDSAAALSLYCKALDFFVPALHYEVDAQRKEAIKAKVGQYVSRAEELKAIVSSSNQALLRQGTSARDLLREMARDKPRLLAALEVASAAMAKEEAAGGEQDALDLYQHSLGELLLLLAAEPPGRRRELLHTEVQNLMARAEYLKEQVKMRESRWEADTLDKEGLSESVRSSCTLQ
Conditions: kinase ULK3.

The target in assay [14] is T14, panel of 370 protein kinases (Homo sapiens, UniProt Q86YV6).
T14 construct: purchased Reaction Biology Corporation (assay service)
T14 sequence (Q86YV6 whole entry): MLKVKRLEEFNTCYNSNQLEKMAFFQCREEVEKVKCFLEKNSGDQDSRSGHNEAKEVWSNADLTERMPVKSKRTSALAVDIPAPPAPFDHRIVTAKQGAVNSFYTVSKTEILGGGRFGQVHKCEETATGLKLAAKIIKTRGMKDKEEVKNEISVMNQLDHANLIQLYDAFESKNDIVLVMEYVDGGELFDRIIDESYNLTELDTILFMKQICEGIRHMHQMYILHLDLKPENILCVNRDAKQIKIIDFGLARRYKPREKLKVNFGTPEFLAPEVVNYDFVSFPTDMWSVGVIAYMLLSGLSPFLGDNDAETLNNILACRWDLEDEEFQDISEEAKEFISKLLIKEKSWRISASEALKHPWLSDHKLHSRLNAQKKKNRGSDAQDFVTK
The settings on record: 2 h, kinase MYLK4; read-out: % Enzyme Activity (relative to DMSO controls).

For assay [15], the target named is T15, panel of 370 protein kinases (Homo sapiens, UniProt P52564).
T15 construct: purchased Reaction Biology Corporation (assay service)
The settings on record: 2 h, kinase MKK6; read-out: % Enzyme Activity (relative to DMSO controls).

For assay [16], the target named is T16, panel of 370 protein kinases (Homo sapiens, UniProt Q9BYP7).
T16 construct: purchased Reaction Biology Corporation (assay service)
Conditions: 2 h, kinase WNK3; read-out: % Enzyme Activity (relative to DMSO controls).

The target of assay [17] is T17, panel of 370 protein kinases (Homo sapiens, UniProt Q02156).
T17 construct: purchased Reaction Biology Corporation (assay service)
The settings on record: 2 h, kinase PKCepsilon; read-out: % Enzyme Activity (relative to DMSO controls).

The target in assay [18] is T18, panel of 370 protein kinases (Homo sapiens, UniProt P35626).
T18 construct: purchased Reaction Biology Corporation (assay service)
Conditions: 2 h, kinase GRK3; read-out: % Enzyme Activity (relative to DMSO controls).

Assay [19] has as its target T19, panel of 370 protein kinases (Homo sapiens, UniProt Q15349).
T19 construct: purchased Reaction Biology Corporation (assay service)
Conditions: 2 h, kinase RSK3; read-out: % Enzyme Activity (relative to DMSO controls).

Assay [20] deals with T20, panel of 370 protein kinases (Homo sapiens, UniProt Q14289).
T20 construct: purchased Reaction Biology Corporation (assay service)
The settings on record: 2 h, kinase PYK2; read-out: % Enzyme Activity (relative to DMSO controls).

The target in assay [21] is T21, panel of 370 protein kinases (Homo sapiens, UniProt P54756).
T21 construct: purchased Reaction Biology Corporation (assay service)
T21 sequence (P54756 25-1037): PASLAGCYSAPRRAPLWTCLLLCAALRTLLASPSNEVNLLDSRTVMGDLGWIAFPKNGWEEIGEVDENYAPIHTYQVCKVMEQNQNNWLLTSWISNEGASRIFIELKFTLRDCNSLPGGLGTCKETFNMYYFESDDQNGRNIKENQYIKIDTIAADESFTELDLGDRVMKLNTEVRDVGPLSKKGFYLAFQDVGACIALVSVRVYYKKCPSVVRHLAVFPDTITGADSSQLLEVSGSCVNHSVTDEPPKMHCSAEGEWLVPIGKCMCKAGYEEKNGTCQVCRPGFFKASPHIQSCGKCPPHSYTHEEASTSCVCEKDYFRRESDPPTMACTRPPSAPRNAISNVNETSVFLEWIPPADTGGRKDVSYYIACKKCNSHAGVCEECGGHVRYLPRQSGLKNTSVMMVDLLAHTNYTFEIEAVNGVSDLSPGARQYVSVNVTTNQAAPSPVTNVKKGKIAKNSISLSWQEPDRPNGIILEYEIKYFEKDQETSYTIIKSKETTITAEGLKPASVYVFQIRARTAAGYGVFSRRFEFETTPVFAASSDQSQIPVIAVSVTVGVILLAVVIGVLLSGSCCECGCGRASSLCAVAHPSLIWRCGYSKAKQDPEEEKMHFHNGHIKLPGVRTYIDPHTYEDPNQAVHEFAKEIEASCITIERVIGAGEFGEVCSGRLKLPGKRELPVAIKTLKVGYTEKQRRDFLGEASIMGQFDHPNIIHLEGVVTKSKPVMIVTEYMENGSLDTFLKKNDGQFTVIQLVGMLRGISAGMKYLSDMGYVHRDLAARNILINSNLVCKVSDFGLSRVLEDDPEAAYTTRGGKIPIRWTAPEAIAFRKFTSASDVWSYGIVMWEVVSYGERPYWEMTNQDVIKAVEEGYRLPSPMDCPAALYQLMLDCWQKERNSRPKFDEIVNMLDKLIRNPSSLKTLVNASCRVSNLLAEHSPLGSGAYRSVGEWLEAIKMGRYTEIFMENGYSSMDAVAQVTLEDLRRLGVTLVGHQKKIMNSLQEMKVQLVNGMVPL
The settings on record: kinase EPHA5.

The target in assay [22] is T22, panel of 370 protein kinases (Homo sapiens, UniProt O75676).
T22 construct: purchased Reaction Biology Corporation (assay service)
Conditions: 2 h, kinase MSK2/RPS6KA4; read-out: % Enzyme Activity (relative to DMSO controls).

T8 sequence (P49841 whole entry): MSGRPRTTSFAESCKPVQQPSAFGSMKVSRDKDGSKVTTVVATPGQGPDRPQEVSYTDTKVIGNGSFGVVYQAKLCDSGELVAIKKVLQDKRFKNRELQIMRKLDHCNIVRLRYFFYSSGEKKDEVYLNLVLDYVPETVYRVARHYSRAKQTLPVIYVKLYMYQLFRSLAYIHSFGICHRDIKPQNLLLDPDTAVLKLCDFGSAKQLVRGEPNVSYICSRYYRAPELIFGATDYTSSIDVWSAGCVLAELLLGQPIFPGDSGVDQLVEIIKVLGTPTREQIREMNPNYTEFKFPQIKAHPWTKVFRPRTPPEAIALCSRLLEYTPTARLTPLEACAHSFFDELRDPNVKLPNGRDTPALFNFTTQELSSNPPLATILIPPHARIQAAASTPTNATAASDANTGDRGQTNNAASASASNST

Turning to `CCN1CCN(C(=O)c2ccc(Nc3ncc(F)c(-c4ccc5nc(N(C)C)sc5c4)n3)nc2)CC1` [YK-2-69], the remaining activity at 1 µM in assay [1] was found to be 87.8%; in assay [2], 95%; in [3], 101%; in assay [4], 99.7%; in assay [5], 108%; in [6] it was 57.5%. Moreover, the remaining activity at 1 µM was 103% in [7]; 60.8% in assay [8]; 98.6% in assay [9]; 95.7% in [10]; 61.3% in [11]; 44.6% in assay [14]. Also, the remaining activity at 1 µM in assay [15] is 89.5%; in assay [16] it was 98.9%; in assay [17] it was 91.3%; in [18], 108%; in assay [19] it was 104%; in [20], 110%. For the same compound, the remaining activity at 1 µM in assay [22] came to 96.2%. The “% Enzyme Activity (relative to DMSO controls)” value was 95.57% and 95.00% in [12]; 97.12% and 96.24% in [13]; 97.73% and 95.85% in assay [21].
